molecular target: recombinant human integrin αVβ6 (Homo sapiens (Human), UniProt P06756+P18564); test: Solid phase integrin αVβ6 binding assay; settings: inhibition of recombinant TGFβ1 LAP binding to coated integrin, IC50 presented in four ranges, read-out: αvβ6 Inhibition IC50 (nM) - range
Description: (§1) Microplates were coated with recombinant human integrin αVβ6 (2 μg/mL) in PBS (100 μL/well 25° C., overnight). The coating solution was removed, washed with wash buffer (0.05% Tween 20; 0.5 mM MnCl2; in 1×TBS). The plate was blocked with 200 μL/well of Block Buffer (1% BSA; 5% sucrose; 0.5 mM MnCl2; in 1×TBS) at 37° C. for 2 h. Dilutions of testing compounds and recombinant TGFβ1 LAP (0.67 μg/mL) in binding buffer (0.05% BSA; 2.5% sucrose; 0.5 mM MnCl2; in 1×TBS) were added. The plate was incubated for 2 hours at 25° C., washed, and incubated for 1 hour with Biotin-Anti-hLAP. Bound antibody was detected by peroxidase-conjugated streptavidin. The IC50 values for testing compounds were calculated by a four-parameter logistic regression.
The compounds tested were compound samples prepared according to procedures described in the Synthetic Examples section, with the stereochemical purity as indicated in the Examples.
as §1, with “A third series of exemplary compounds was selected for testing in the solid phase integrin αVβ6 binding assay. The compounds tested were compound samples prepared according to procedures described in the Synthetic Examples section, with the stereochemical purity as indicated in the Examples. As in Example B1, microplates were” for “Microplates were”, “(0.67 g/mL)” for “(0.67 μg/mL)”

Sequence of recombinant human integrin αVβ6 (P06756 31-992): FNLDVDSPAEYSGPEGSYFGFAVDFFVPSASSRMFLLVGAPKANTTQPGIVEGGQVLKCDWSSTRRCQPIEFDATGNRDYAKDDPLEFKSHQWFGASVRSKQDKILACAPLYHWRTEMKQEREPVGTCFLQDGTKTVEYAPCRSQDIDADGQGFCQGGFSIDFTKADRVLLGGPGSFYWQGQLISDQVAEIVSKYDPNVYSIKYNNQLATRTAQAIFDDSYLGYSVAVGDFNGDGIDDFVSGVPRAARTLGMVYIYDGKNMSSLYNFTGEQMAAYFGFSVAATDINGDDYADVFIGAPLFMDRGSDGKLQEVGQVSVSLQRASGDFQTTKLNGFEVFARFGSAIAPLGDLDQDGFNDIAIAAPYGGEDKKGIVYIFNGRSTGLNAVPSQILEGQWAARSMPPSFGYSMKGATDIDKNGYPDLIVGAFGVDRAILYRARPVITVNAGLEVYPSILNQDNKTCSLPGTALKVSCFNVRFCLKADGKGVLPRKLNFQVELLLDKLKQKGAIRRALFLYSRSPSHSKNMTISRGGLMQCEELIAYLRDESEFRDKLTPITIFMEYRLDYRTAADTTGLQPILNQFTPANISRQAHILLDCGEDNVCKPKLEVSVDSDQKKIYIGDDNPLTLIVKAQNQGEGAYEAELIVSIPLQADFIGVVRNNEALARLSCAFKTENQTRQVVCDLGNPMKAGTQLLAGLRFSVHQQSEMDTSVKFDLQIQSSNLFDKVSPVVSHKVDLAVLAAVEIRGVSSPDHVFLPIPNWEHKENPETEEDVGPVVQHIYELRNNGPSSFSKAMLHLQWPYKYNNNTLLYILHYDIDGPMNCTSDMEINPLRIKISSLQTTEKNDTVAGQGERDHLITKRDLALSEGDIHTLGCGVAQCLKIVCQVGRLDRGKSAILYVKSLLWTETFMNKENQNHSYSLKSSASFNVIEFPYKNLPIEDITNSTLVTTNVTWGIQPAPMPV
Sequence of recombinant human integrin αVβ6 (P18564 22-707): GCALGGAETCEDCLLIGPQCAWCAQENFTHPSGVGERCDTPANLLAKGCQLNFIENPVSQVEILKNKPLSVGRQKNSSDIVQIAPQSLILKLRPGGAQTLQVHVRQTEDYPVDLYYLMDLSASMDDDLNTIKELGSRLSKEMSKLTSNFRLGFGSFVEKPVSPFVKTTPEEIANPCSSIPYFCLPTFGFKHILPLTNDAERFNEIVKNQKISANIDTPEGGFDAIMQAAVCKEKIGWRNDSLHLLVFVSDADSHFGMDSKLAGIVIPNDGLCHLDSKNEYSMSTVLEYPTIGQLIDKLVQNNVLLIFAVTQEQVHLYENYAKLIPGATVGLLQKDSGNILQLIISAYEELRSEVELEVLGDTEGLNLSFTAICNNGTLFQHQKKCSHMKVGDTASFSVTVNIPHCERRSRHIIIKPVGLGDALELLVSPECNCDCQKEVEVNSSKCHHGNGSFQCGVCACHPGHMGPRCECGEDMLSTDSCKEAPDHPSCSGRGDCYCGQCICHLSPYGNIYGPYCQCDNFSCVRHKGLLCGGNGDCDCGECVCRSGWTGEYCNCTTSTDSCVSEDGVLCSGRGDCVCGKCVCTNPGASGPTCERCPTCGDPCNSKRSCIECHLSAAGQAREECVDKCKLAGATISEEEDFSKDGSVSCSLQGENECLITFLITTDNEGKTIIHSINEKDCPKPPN

First: O=C(O)[C@H](CCN(CCCCc1ccc2c(n1)NCCC2)C1CC1)Nc1cc(C(F)F)ncn1 [Compound 1, (S)-4-(cyclopropyl(4-(5,6,7,8-tetrahydro-1,8-naphthyridin-2-yl)butyl)amino)-2-((6-(difluoromethyl)pyrimidin-4-yl)amino) butanoic Acid]
Second: COCCN(CCCCc1ccc2c(n1)NCCC2)CC[C@H](Nc1cc(C(F)F)ncn1)C(=O)O [Compound 23, (S)-2-((6-(difluoromethyl)pyrimidin-4-yl)amino)-4-((2-methoxyethyl) (4-(5,6,7,8-tetrahydro-1,8-naphthyridin-2-yl)butyl)amino) butanoic Acid]
The IC50 of the first is higher: 250 to 1000 nM for the first, under 50 nM for the second.

First: CC(C)(O)CN(CCCCc1ccc2c(n1)NCCC2)CC[C@H](Nc1ccncn1)C(=O)O [Compound 4, (S)-4-((2-hydroxy-2-methylpropyl) (4-(5,6,7,8-tetrahydro-1,8-naphthyridin-2-yl)butyl)amino)-2-(pyrimidin-4-ylamino) butanoic Acid]
Second: COCCN(CCCCc1ccc2c(n1)NCCC2)CC[C@H](Nc1ccnc(C(F)(F)F)n1)C(=O)O [Compound 24, (S)-4-((2-methoxyethyl) (4-(5,6,7,8-tetrahydro-1,8-naphthyridin-2-yl)butyl)amino)-2-((2-(trifluoromethyl)pyrimidin-4-yl)amino) butanoic Acid]
The IC50 of the first is higher: 50 to 250 nM for the first, under 50 nM for the second.

`COCCN(CCCCc1ccc2c(n1)NCCC2)CC[C@H](Nc1ncnc2ccccc12)C(=O)O` [Compound 5, (S)-4-((2-methoxyethyl) (4-(5,6,7,8-tetrahydro-1,8-naphthyridin-2-yl)butyl)amino)-2-(quinazolin-4-ylamino) butanoic Acid] and `CS(=O)(=O)CCN(CCCCc1ccc2c(n1)NCCC2)CC[C@H](Nc1ncnc2ccccc12)C(=O)O` [Compound 27, (S)-4-((2-(methylsulfonyl)ethyl) (4-(5,6,7,8-tetrahydro-1,8-naphthyridin-2-yl)butyl)amino)-2-(quinazolin-4-ylamino) butanoic Acid] cannot be ordered by IC50: under 50 nM for the first, under 50 nM for the second.

First: O=C(O)[C@H](CCN(CCCCc1ccc2c(n1)NCCC2)C1CC1)Nc1ncnc2ccccc12 [Compound 6, (S)-4-(cyclopropyl(4-(5,6,7,8-tetrahydro-1,8-naphthyridin-2-yl)butyl)amino)-2-(quinazolin-4-ylamino) butanoic Acid]
Second: O=C(O)[C@H](CCN(CCCCc1ccc2c(n1)NCCC2)C1CC(F)(F)C1)Nc1ncnc2ccccc12 [Compound 9, (S)-4-((3,3-difluorocyclobutyl) (4-(5,6,7,8-tetrahydro-1,8-naphthyridin-2-yl)butyl)amino)-2-(quinazolin-4-ylamino) butanoic Acid]
The IC50 of the first is lower: 50 to 250 nM for the first, over 1000 nM for the second. The first is the more potent here.

`COCCN(CCCCc1ccc2c(n1)NCCC2)CC[C@H](Nc1ncnc2cc(F)ccc12)C(=O)O` [Compound 7, (S)-2-((7-fluoroquinazolin-4-yl)amino)-4-((2-methoxyethyl) (4-(5,6,7,8-tetrahydro-1,8-naphthyridin-2-yl)butyl)amino) butanoic Acid] and `COCCN(CCCCc1ccc2c(n1)NCCC2)CC[C@H](Nc1ncnc2ccc(F)cc12)C(=O)O` [Compound 19, (S)-2-((6-fluoroquinazolin-4-yl)amino)-4-((2-methoxyethyl) (4-(5,6,7,8-tetrahydro-1,8-naphthyridin-2-yl)butyl)amino) butanoic Acid] cannot be ordered by IC50: under 50 nM for the first, under 50 nM for the second.

Compared with `O=C(O)[C@H](CCN(CCCCc1ccc2c(n1)NCCC2)CC(F)F)Nc1ncnc2ccccc12` [Compound 8, (S)-4-((2,2-difluoroethyl) (4-(5,6,7,8-tetrahydro-1,8-naphthyridin-2-yl)butyl)amino)-2-(quinazolin-4-ylamino) butanoic Acid], `CO[C@@H](C)CN(CCCCc1ccc2c(n1)NCCC2)CC[C@H](Nc1ncnc2ccccc12)C(=O)O` [Compound 25, (S)-4-(((S)-2-methoxypropyl) (4-(5,6,7,8-tetrahydro-1,8-naphthyridin-2-yl)butyl)amino)-2-(quinazolin-4-ylamino) butanoic Acid] is lower in IC50: 50 to 250 nM for the first, under 50 nM for the second. The second is the more potent here.

`COCCN(CCCCc1ccc2c(n1)NCCC2)CC[C@H](Nc1nc(C)nc2ccccc12)C(=O)O` [Compound 10, (S)-4-((2-methoxyethyl) (4-(5,6,7,8-tetrahydro-1,8-naphthyridin-2-yl)butyl)amino)-2-((2-methylquinazolin-4-yl)amino) butanoic Acid] and `COCCN(CCCCc1ccc2c(n1)NCCC2)CC[C@H](Nc1nc(C)nc2cc(F)ccc12)C(=O)O` [Compound 12, (S)-2-((7-fluoro-2-methylquinazolin-4-yl)amino)-4-((2-methoxyethyl) (4-(5,6,7,8-tetrahydro-1,8-naphthyridin-2-yl)butyl)amino) butanoic Acid] cannot be ordered by IC50: under 50 nM for the first, under 50 nM for the second.

`COCCN(CCCCc1ccc2c(n1)NCCC2)CC[C@H](Nc1ncnc2ncccc12)C(=O)O` [Compound 11, (S)-4-((2-methoxyethyl) (4-(5,6,7,8-tetrahydro-1,8-naphthyridin-2-yl)butyl)amino)-2-(pyrido[2,3-d]pyrimidin-4-ylamino) butanoic Acid] and `COCCN(CCCCc1ccc2c(n1)NCCC2)CC[C@H](Nc1ncnc2cccnc12)C(=O)O` [Compound 16, (S)-4-((2-methoxyethyl) (4-(5,6,7,8-tetrahydro-1,8-naphthyridin-2-yl)butyl)amino)-2-(pyrido[3,2-d]pyrimidin-4-ylamino) butanoic Acid] cannot be ordered by IC50: under 50 nM for the first, under 50 nM for the second.

First: COCCN(CCCCc1ccc2c(n1)NCCC2)CC[C@H](Nc1ncnc2cc(C(F)(F)F)ccc12)C(=O)O [Compound 13, (S)-4-((2-methoxyethyl) (4-(5,6,7,8-tetrahydro-1,8-naphthyridin-2-yl)butyl)amino)-2-((7-(trifluoromethyl)quinazolin-4-yl)amino) butanoic Acid]
Second: COCCN(CCCCc1ccc2c(n1)NCCC2)CC[C@H](Nc1ncnc2c(C(F)(F)F)cccc12)C(=O)O [Compound 15, (S)-4-((2-methoxyethyl) (4-(5,6,7,8-tetrahydro-1,8-naphthyridin-2-yl)butyl)amino)-2-((8-(trifluoromethyl)quinazolin-4-yl)amino) butanoic Acid]
The IC50 of the first is higher: 50 to 250 nM for the first, under 50 nM for the second. The second is the more potent here.

`COCCN(CCCCc1ccc2c(n1)NCCC2)CC[C@H](Nc1nc(C(F)(F)F)nc2ccccc12)C(=O)O` [Compound 14, (S)-4-((2-methoxyethyl) (4-(5,6,7,8-tetrahydro-1,8-naphthyridin-2-yl)butyl)amino)-2-((2-(trifluoromethyl)quinazolin-4-yl)amino) butanoic Acid] and `COCCN(CCCCc1ccc2c(n1)NCCC2)CC[C@H](Nc1cc(C)nc(C(F)(F)F)n1)C(=O)O` [Compound 26, (S)-4-((2-methoxyethyl) (4-(5,6,7,8-tetrahydro-1,8-naphthyridin-2-yl)butyl)amino)-2-((6-methyl-2-(trifluoromethyl)pyrimidin-4-yl)amino) butanoic Acid] cannot be ordered by IC50: under 50 nM for the first, under 50 nM for the second.

`COCCN(CCCCc1ccc2c(n1)NCCC2)CC[C@H](Nc1ncnc2cnccc12)C(=O)O` [Compound 17, (S)-4-((2-methoxyethyl) (4-(5,6,7,8-tetrahydro-1,8-naphthyridin-2-yl)butyl)amino)-2-(pyrido[3,4-d]pyrimidin-4-ylamino) butanoic Acid] and `COCCN(CCCCc1ccc2c(n1)NCCC2)CC[C@H](Nc1ncnc2cccc(F)c12)C(=O)O` [Compound 18, (S)-2-((5-fluoroquinazolin-4-yl)amino)-4-((2-methoxyethyl) (4-(5,6,7,8-tetrahydro-1,8-naphthyridin-2-yl)butyl)amino) butanoic Acid] cannot be ordered by IC50: under 50 nM for the first, under 50 nM for the second.

`COCCN(CCCCc1ccc2c(n1)NCCC2)CC[C@H](Nc1ncnc2c(F)cccc12)C(=O)O` [Compound 20, (S)-2-((8-fluoroquinazolin-4-yl)amino)-4-((2-methoxyethyl) (4-(5,6,7,8-tetrahydro-1,8-naphthyridin-2-yl)butyl)amino) butanoic Acid] and `COCCN(CCCCc1ccc2c(n1)NCCC2)CC[C@H](Nc1ncnc2cc(F)c(F)cc12)C(=O)O` [Compound 21, (S)-2-((6,7-difluoroquinazolin-4-yl)amino)-4-((2-methoxyethyl) (4-(5,6,7,8-tetrahydro-1,8-naphthyridin-2-yl)butyl)amino) butanoic Acid] cannot be ordered by IC50: under 50 nM for the first, under 50 nM for the second.

Molecule `COCCN(CCCCc1ccc2c(n1)NCCC2)CC[C@H](Nc1cc(C(F)(F)F)nc(C)n1)C(=O)O` [Compound 22, (S)-4-((2-methoxyethyl) (4-(5,6,7,8-tetrahydro-1,8-naphthyridin-2-yl)butyl)amino)-2-((2-methyl-6-(trifluoromethyl)pyrimidin-4-yl)amino) butanoic Acid] has an IC50 of under 50 nM.
